Four compounds from patent US20100196311A1, “METHODS AND COMPOSITIONS CONTAINING mTOR INHIBITORS FOR ENHANCING IMMUNE RESPONSES” (priority 2009, published 2010) can be followed below.

The subject of test [1] is RENCA tumors expressing CA9. Put plainly: Renal cell carcinoma model: RENCA-CA9 tumors in Balb/c mice, vaccine with or without temsirolimus. It is filed as in vivo, mouse. The protocol:
FIG. 8. Renal Cell Carcinoma model. mTOR inhibition with temsirolimus enhanced the antitumor effects of a cancer vaccine (complex of hsp110 and CA9) in Balb/C mice 10 days after implantation of RENCA tumors expressing the tumor antigen CA9. Each line represents tumor growth in a single mouse. To generate the vaccine, CA9 (antigen target) and HSP110 (heat shock protein adjuvant) were complexed at 1:1 molar ratio by incubating at 43° C. for 30 min. On day 0, 2×10^5 Renca-CA9 cells were implanted into mice. The vaccine was administered i.d. on days 10, 17 and 24. Temsirolimus was inject i.p. on days 11 to 16, 18 to 23 and 25 to 30.
(§1) In the RCC model, a heat shock protein (HSP) served as an immune adjuvant and was complexed to a target antigen, carbonic anhydrase IX (CA9), which is expressed by 90% of clear cell RCCs. Balb/c mice were implanted with syngeneic RENCA tumors engineered to express CA9. In a treatment model targeting established tumor implants, mice were treated 10 days after implantation with tumor vaccine with or without temsirolimus (FIG. 8). […] In this model, CA9 was complexed to a melanoma antigen, gp100. C57/BL6 mice were implanted with syngeneic B16 tumors engineered to express gp100; mice were treated 10 days later with tumor vaccine. Similar results were obtained using a murine ovarian cancer model where the vaccine was augmented with rapamycin.

The subject of test [2] is B16 tumors expressing gp100. Description: Melanoma model: B16-gp100 tumors in C57/BL6 mice, vaccine with or without temsirolimus. The settings on record: vaccine gp100+CA9; treated 10 days after implantation. The test is classed as in vivo, mouse. The protocol: FIG. 9. mTOR inhibition with temsirolimus enhanced the antitumor effects of a cancer vaccine (complex of gp100 and CA9) in C57/BL6 mice treated 10 days after implantation of B16 tumors expressing gp100. Each line represents tumor growth in a single mouse. To generate the vaccine, gp100 (antigen target) and CA9 (adjuvant) were complexed at 1:1 molar ratio by incubating at RT for 30 min. On day 0, 2×10^5 B16-gp100 cells were implanted into mice. The vaccine was administered i.d. on days 10, 17 and 24. Temsirolimus was inject i.p. on days 11 to 16, 18 to 23 and 25 to 30.
as §1

For test [3], the system named is RENCA (renal cancer cells). Put plainly: In vitro growth of RENCA cells. It is filed as cell-based, mouse.
Another test relates to B16 melanoma. Description: In vitro growth of B16 melanoma. It is filed as cell-based, mouse.
The test system of the next test is gp100. Description: gp100-specific IFN-γ ELISPOT of splenocytes after immunization. The test is classed as in vivo, mouse. The note with it: concurrent treatment with temsirolimus; p<0.05. From the text:
FIG. 10. Immunization with CA9+gp100 elicited a gp100-specific IFN-γ response measured using the ELISPOT assay.
(§2) Consistent with this possibility, immunization with CA9+gp100 elicited a gp100-specific IFN-γ response from splenocytes using an ELISPOT assay. […] Further, specific killing increased with temsirolimus treatment in an in vivo CTL assay. Pmel-1 cells were adoptively transferred to C57/BL6 mice and immunized with gp100+CA9 with or without temsirolimus. Pmel-1 cells are transgenic cells that recognize the H-2 Db-restricted epitope corresponding to amino acids 25-33 of gp100.13 Target cells loaded with the H-2 Db-restricted epitope were injected and monitored 14 hours later by flow cytometry. […] When temsirolimus was administered with the vaccine, specific killing increased to 78%.

Test [4] concerns target cells loaded with gp100 25-33 epitope. Description: In vivo CTL assay with Pmel-1 cells in C57/BL6 mice. Details: species or system mouse. The settings on record: temsirolimus administered with the vaccine; 14 hours.
Text: as §2

Another test concerns the target T1, mTOR (Mus musculus, UniProt P26883+Q9JLN9).
T1 construct: endogenous in cells; host or cells: naive OT-I CD8+ T cells (TCR transgenic Rag2-/- mice) stimulated with Ag+B7.1 +/- IL-12
Description: mTOR activity (mTOR, S6K and S6 phosphorylation by ICS) in stimulated OT-I cells. The test is classed as cell-based. The protocol:
FIG. 1. […] (A and B) OT-I cells stimulated with BOK (Ag+B7.1) (±) IL-12 were evaluated for (A) IFN-γ by ICS and (B) cytolytic activity (primary, 72 hr poststimulation; secondary, 24 hr postsecondary stimulation); ***p<0.0002. (C-E) OT-I cells stimulated with antigen (Ag) (the antigen is a peptide consisting of Ser Ile Ile followed by Asn Phe Glu which are followed by Lys and Lue (OVAp), used at 10 nM) plus B7.1 (100 μg/ml)(Ag+B7.1)(±) IL-12 (2 ng/ml) were evaluated by ICS at the indicated time points for (C) phosphorylated mTOR, (D) phosphorylated S6K, and (E) phosphorylated ribosomal S6. For mTOR inhibition, rapamycin (20 ng/ml) was added 30 min prior to addition of antigen, cytokine Data are representative of at least three independent experiments with similar outcomes. (Data are presented as mean±SEM.)
(§3) Stimulation of OT-1 Cells. Naive OT-I cells were stimulated with latex microspheres expressing H-2K^b/ovalbumin antigen and B7.1 according to known techniques. Naive OT-II cells were stimulated with anti-CD3-/anti-CD28-coated latex beads. In some experiments, the cell line derived from embryonic fibroblasts, namely, BOK (MEC.B7.SigOVA: expressing H-2K^b, OVAp and B7.1, were used as antigen-presenting cells to stimulate naive OT-I cells according to known techniques.
Although the kinase mTOR has been implicated as an integrator of various extracellular signals and a sensor for internal energy levels for determination of cell fate, the role for mTOR in integrating instructions that program naive CD8^+ T cells for type I effector differentiation is unclear. First, we tested the ability of Ag and B7.1 (Ag+B7.1) in the presence or absence of IL-12 to activate mTOR in OT-I cells at various time points after stimulation. Stimulation of naive OT-I cells with Ag+B7.1 induced mTOR phosphorylation (activation) by 2 hr, which was maximal at 12 hr and barely detectable by 48 hr (FIG. 1C). Remarkably, IL-12 addition enhanced Ag+B7.1-induced mTOR phosphorylation at 2 hr, which was maintained at 48 hr after stimulation (FIG. 1C). […] To verify that the induction of mTOR phosphorylation also led to its kinase activity, we monitored the kinetics of p70 S6K phosphorylation (Ser 371), a direct target of mTOR kinase activity. Although both Ag+B7.1 and Ag+B7.1 plus IL-12 induced similar amounts of S6K phosphorylation at 12 hr (maximal), the presence of IL-12 was able to sustain the S6K phosphorylation up to 48 hr (FIG. 10), in correlation with mTOR phosphorylation (FIG. 1C). […] The Ag+B7.1±IL-12 stimulation-induced S6K and S6 phosphorylation in OT-I cells was blocked by rapamycin (specific inhibitor of mTOR complex-1) (FIGS. 1D and 1E), thus confirming the ability of instructions to activate mTOR and its kinase activity in OT-I cells. […]

The test system of a further test is T-bet. Description: T-bet mRNA and protein expression in OT-I cells. It is filed as cell-based, mouse. On the procedure:
FIG. 4. IL-12-Enhanced mTOR Phosphorylation Is Essential for T-bet-Determined Type I Effector Maturation of CD8^+ T Cells. (A-C) OT-I cells stimulated with Ag+B7.1 (±) IL-12 and rapamycin were evaluated for (A) mRNA for T-bet at the indicated time points by RT-PCR, (B) T-bet protein expression at the indicated time-points by ICS, and (C) T-bet protein expression by ICS before and after antigen recall. **p<0.0035; ***p<0.0005. (D) WT and Tbx21^−1− OT-I cells were stimulated with Ag+B7.1 (±) IL-12 and evaluated for IFN-γ production at the primary and secondary phase. ***p<0.0001. (E and F) OT-I cells stimulated with Ag+B7.1 (±) IL-12 and rapamycin were transduced with T-bet-ER retroviral vector (±) 4-HT (10 nM) and evaluated by ICS for (E) T-bet protein expression by ICS and (F) IFN-γ at secondary phase (168 hr). (G and H) OT-I cells stimulated with Ag+B7.1 (±) insulin (1 U/ml) and rapamycin were evaluated by ICS for (G) S6K phosphorylation at 48 hr and (H) T-bet expression at 72 hr. Experiments shown are representative of at least three (A, B, D, E, and F) and two (C, G, and H) independent experiments with similar outcomes. (Data are presented as mean±SEM).
Retroviral Transduction and T-Bet Induction. T-bet-ER RV (Estrogen Responsive Retro Viral Vector) was cotransfected into Platinum-E cells together with the retroviral packaging vector pCL-Eco using LipoD293 DNA in vitro transfection reagent (SignaGen Laboratories) following the manufacturer's instructions. The medium was replaced the following day, and retroviral supernatant was collected 3 days after transfection. For transduction, naive OT-I cells stimulated for 24 hr, were suspended in retroviral supernatant containing polybrene (8 μg/ml; Sigma-Aldrich), and were spin-transduced at 2200 rpm for 90 min at 30° C. After spin-transduction, cells were cultured in fresh medium containing the same polarizing milieu as before, along with the addition of 4-HT (10 nM). At the end of 72 hr after initial stimulation, cells were washed thrice and maintained in the absence of any stimulation but in the presence of 4-HT and IL-7 (10 ng/ml).
Because the sustained expression of T-bet is necessary and sufficient for imprinting type I effector cell fate (Matsuda et al., 2007) and mTOR inhibition reversed IL-12 imprinted type I effector maturation in OT-I cells (FIG. 3), we next sought to determine whether rapamycin treatment affects T-bet expression in OT-I cells by performing kinetic analysis of T-bet mRNA expression (FIG. 4A). […] Moreover, inhibition of mTOR activity at 12 hr was also able to achieve loss in T-bet expression, similar to the observed loss in type I effector maturation (FIG. 3E).

The subject of a further test is OT-I cells. Put plainly: Type I effector functions (IFN-γ, CTL activity, Granzyme B) of OT-I cells, primary and secondary phase. The test is classed as cell-based, mouse. The settings on record: T-bet-ER-transduced; tamoxifen 10 nM; secondary phase. On the procedure: FIG. 3. Sustained mTOR Activity Is Essential for Heritable Type I Effector Differentiation of CD8^+ T Cells. […] (D and E) OT-I cells were stimulated with Ag+B7.1 (±) IL-12 and rapamycin was added 12 hr after stimulation to evaluate cells for (D) S6K phosphorylation at 48 hr and (E) IFN-γ production at the primary and secondary phase. Experiments shown are representative of at least three (A and B) and two (C-E) independent experiments with similar outcomes. (Data are presented as mean±SEM.)
as §3
Evaluation of Secondary Antigen-Recall Responses In Vitro. For studying secondary antigen-recall response in vitro; OT-I cells harvested at 72 hr (primary) were washed thrice with medium and recultured (1×10^5/ml) for an additional 72 hr in a 24-well plate with IL-7 (10 ng/ml) only. At 144 hr the cells were harvested, washed thrice with medium, had numbers adjusted (5×10^5), and were restimulated with Ag/B7.1 only for an additional 24 hr (secondary stimulation). At 168 hr, the cells recovered were evaluated by flow cytometry and in vitro functional assay.
Because the presence of IL-12 during antigen stimulation augments mTOR activity and is deterministic for type I effector maturation, we analyzed whether sustained mTOR kinase activity is required for IL-12-programmed type I effector functions in OT-I cells. To do so, we stimulated naive OT-I cells with BOK±IL-12, and rapamycin and effector functions were analyzed from the primary and secondary activated OT-I pool. […] In addition, we observed a block in IL-12-induced IFN-γ production and CTL activity upon rapamycin treatment at 144 hr after primary stimulation.

[5] abbreviates: 2-DG added to Ag+B7.1 and IL-12-stimulated OT-I cells.

In the case of `CO[C@H]1C[C@@H]2CC[C@@H](C)[C@@](O)(O2)C(=O)C(=O)N2CCCC[C@H]2C(=O)O[C@H]([C@H](C)C[C@@H]2CC[C@@H](OC(=O)C(C)(CO)CO)[C@H](OC)C2)CC(=O)[C@H](C)/C=C(\C)[C@@H](O)[C@@H](OC)C(=O)[C@H](C)C[C@H](C)/C=C/C=C/C=C/1C` [temsirolimus], in test [1] (treatment from 10 days after implantation), the “Tumor growth, agent alone” value was “decrease”. Further, the “Tumor growth, combination of vaccine and temsirolimus” value in test [1] (vaccine i.d. days 10, 17, 24, temsirolimus i.p. between) is recorded as “greatest effect”; in [2] it was “greatest effect”. Further, the Growth in vitro entry is on record as “direct effect” in test [3] and “no effect” with B16 melanoma. The “gp100-specific IFN-γ response from splenocytes” value with gp100 is “significantly augmented”. In addition, the Specific killing in [4] is on record as 78%.

With `O=CC[C@@H](O)[C@H](O)[C@H](O)CO` [2-DG, 2-deoxyglucose], the mTOR activity result on mTOR (setting [5]) was “loss”. Also, in the test with T-bet (setting [5]), the T-bet expression result was “loss”.

In the case of insulin, in the test with mTOR (insulin (1 U/ml) added to Ag+B7.1-stimulated OT-I cells, 48 hr), the “mTOR activity (S6 Kp)” value is listed as “enhanced”. The T-bet expression entry in the test with T-bet (insulin (1 U/ml) added to Ag+B7.1-stimulated OT-I cells, 72 hr) is “increase”.

In the case of `CC/C(=C(\c1ccccc1)c1ccc(OCCN(C)C)cc1)c1ccccc1` [tamoxifen], the “IFN-γ production in rapamycin-treated IL-12-conditioned OT-I cells” value in the test with OT-I cells is “restored”. Besides, in the test on T-bet (tamoxifen 10 nM), the “T-bet expression in T-bet-ER-transduced OT-I cells” value is listed as “substantial increase”.
